According to US11173151B2, “Substituted triazole derivatives and uses thereof” (BAYER AKTIENGESELLSCHAFT, priority 2017, dated 2021):

How the values were obtained:
human V2 receptor = target: T1, human V2 receptor (Homo sapiens, UniProt P30518); assay: Cellular in vitro assay for determining vasopressin receptor activity, V2 receptor cell line (CHO, CRE-luciferase); format: cell-based; conditions: CHO cell line transfected with human V2 receptor; [Arg8]-vasopressin at EC50 concentration, 3 hours; read-out: IC50 hV2
T1 construct: expressed in transfected cells; host or cells: CHO K1 (ATCC) expressing firefly luciferase under a CRE-responsive promoter
T1 sequence (P30518 whole entry): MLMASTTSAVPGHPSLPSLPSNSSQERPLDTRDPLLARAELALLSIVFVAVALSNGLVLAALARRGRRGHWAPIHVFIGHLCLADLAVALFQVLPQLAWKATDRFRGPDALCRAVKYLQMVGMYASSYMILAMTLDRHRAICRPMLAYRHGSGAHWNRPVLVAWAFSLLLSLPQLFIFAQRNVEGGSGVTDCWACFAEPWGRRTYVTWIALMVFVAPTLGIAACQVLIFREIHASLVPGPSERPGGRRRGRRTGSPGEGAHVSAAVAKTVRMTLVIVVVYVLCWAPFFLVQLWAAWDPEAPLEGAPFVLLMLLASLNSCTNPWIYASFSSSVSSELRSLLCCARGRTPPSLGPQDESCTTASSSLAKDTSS

human V1a receptor = target: T2, human V1a receptor (Homo sapiens, UniProt P37288); assay: Cellular in vitro assay for determining vasopressin receptor activity, V1a receptor cell line (CHO, aequorin luminescence); format: cell-based; conditions: for IC50: CHO cell line transfected with human V1a receptor, [Arg]-vasopressin at EC50 concentration, read-out: IC50 hV1a; for ratio IC50 hV2/hV1a: selectivity ratio IC50 hV2 / IC50 hV1a
T2 construct: expressed in transfected cells; host or cells: CHO K1 (ATCC), also stably transfected with a modified aequorin
T2 sequence (P37288 whole entry): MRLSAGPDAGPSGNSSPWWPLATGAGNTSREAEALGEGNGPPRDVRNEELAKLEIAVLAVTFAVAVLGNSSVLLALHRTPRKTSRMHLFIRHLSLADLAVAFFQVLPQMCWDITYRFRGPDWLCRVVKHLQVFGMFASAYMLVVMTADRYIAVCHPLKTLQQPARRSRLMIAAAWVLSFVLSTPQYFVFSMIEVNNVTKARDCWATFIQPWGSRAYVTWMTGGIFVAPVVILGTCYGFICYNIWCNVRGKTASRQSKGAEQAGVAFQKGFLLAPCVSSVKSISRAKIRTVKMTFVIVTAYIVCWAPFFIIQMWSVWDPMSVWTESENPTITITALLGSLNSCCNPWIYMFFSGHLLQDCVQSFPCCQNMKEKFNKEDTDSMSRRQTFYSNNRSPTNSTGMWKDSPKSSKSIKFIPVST
Outline: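 CHO K1/aequorin cells, coelenterazine 5 μg/ml o/n; cpd 10 min; [Arg]-vasopressin at EC50; luminescence read immediately; IC50.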

| IC50 (human V2 receptor) [nM] | IC50 (human V1a receptor) [nM] | ratio IC50 hV2/hV1a (human V1a receptor) | SMILES |
| --- | --- | --- | --- |
| 102 | 1.35 | 75.9 | CCCNC(=O)c1ccccc1-n1cnc(Cn2nc(-c3ccc(Cl)cc3)n(C[C@H](O)C(F)(F)F)c2=O)n1 [Example 320, 2-[3-({3-(4-Chlorophenyl)-5-oxo-4-[(2S)-3,3,3-trifluoro-2-hydroxypropyl]-4,5-dihydro-1H-1,2,4-triazol-1-yl}methyl)-1H-1,2,4-triazol-1-yl]-N-propylbenzamide] |
| 570 | 13 | 43.8 | CC1CCC(NC(=O)c2ccccc2-n2cnc(Cn3nc(-c4ccc(Cl)cc4)n(C[C@H](O)C(F)(F)F)c3=O)n2)CC1 (stereo partly drawn) [Example 321, 2-[3-({3-(4-Chlorophenyl)-5-oxo-4-[(2S)-3,3,3-trifluoro-2-hydroxypropyl]-4,5-dihydro-1H-1,2,4-triazol-1-yl}methyl)-1H-1,2,4-triazol-1-yl]-N-(4-methylcyclohexyl)benzamide] |
| 275 | 2.65 | 103.8 | CC(C)(C)CNC(=O)c1ccccc1-n1cnc(Cn2nc(-c3ccc(Cl)cc3)n(C[C@H](O)C(F)(F)F)c2=O)n1 [Example 322, 2-[3-({3-(4-Chlorophenyl)-5-oxo-4-[(2S)-3,3,3-trifluoro-2-hydroxypropyl]-4,5-dihydro-1H-1,2,4-triazol-1-yl}methyl)-1H-1,2,4-triazol-1-yl]-N-(2,2-dimethylpropyl)benzamide] |
| 70.5 | 2.05 | 34.4 | Cc1ccccc1NC(=O)c1ccccc1-n1cnc(Cn2nc(-c3ccc(Cl)cc3)n(C[C@H](O)C(F)(F)F)c2=O)n1 [Example 323, 2-[3-({3-(4-Chlorophenyl)-5-oxo-4-[(2S)-3,3,3-trifluoro-2-hydroxypropyl]-4,5-dihydro-1H-1,2,4-triazol-1-yl}methyl)-1H-1,2,4-triazol-1-yl]-N-(2-methylphenyl)benzamide] |
| 1650 | 14 | 117.9 | CC(C)N(C(=O)c1ccccc1-n1cnc(Cn2nc(-c3ccc(Cl)cc3)n(C[C@H](O)C(F)(F)F)c2=O)n1)C(C)C [Example 324, 2-[3-({3-(4-Chlorophenyl)-5-oxo-4-[(2S)-3,3,3-trifluoro-2-hydroxypropyl]-4,5-dihydro-1H-1,2,4-triazol-1-yl}methyl)-1H-1,2,4-triazol-1-yl]-N,N-di(propan-2-yl)benzamide] |
| 120 | 1.01 | 118.8 | O=C(NCC1CC1)c1ccccc1-n1cnc(Cn2nc(-c3ccc(Cl)cc3)n(C[C@H](O)C(F)(F)F)c2=O)n1 [Example 325, 2-[3-({3-(4-Chlorophenyl)-5-oxo-4-[(2S)-3,3,3-trifluoro-2-hydroxypropyl]-4,5-dihydro-1H-1,2,4-triazol-1-yl}methyl)-1H-1,2,4-triazol-1-yl]-N-(cyclopropylmethyl)benzamide] |
| 495 | 4.4 | 112.5 | CC1(C)CCCN(C(=O)c2ccccc2-n2cnc(Cn3nc(-c4ccc(Cl)cc4)n(C[C@H](O)C(F)(F)F)c3=O)n2)C1 [Example 327, 5-(4-Chlorophenyl)-2-[(1-{2-[(3,3-dimethylpiperidin-1-yl)carbonyl]phenyl}-1H-1,2,4-triazol-3-yl)methyl]-4-[(2S)-3,3,3-trifluoro-2-hydroxypropyl]-2,4-dihydro-3H-1,2,4-triazol-3-one] |

The remaining lines, values behind:

| SMILES | IC50 (human V2 receptor) [nM] | IC50 (human V1a receptor) [nM] | ratio IC50 hV2/hV1a (human V1a receptor) |
| --- | --- | --- | --- |
| Cc1c(F)cccc1NC(=O)c1ccccc1-n1cnc(Cn2nc(-c3ccc(Cl)cc3)n(C[C@H](O)C(F)(F)F)c2=O)n1 [Example 306, 2-[3-({3-(4-Chlorophenyl)-5-oxo-4-[(2S)-3,3,3-trifluoro-2-hydroxypropyl]-4,5-dihydro-1H-1,2,4-triazol-1-yl}methyl)-1H-1,2,4-triazol-1-yl]-N-(3-fluoro-2-methylphenyl)benzamide] | 124 | 1.6 | 77.2 |
| Cc1ccc(F)c(NC(=O)c2ccccc2-n2cnc(Cn3nc(-c4ccc(Cl)cc4)n(C[C@H](O)C(F)(F)F)c3=O)n2)c1 [Example 307, 2-[3-({3-(4-Chlorophenyl)-5-oxo-4-[(2S)-3,3,3-trifluoro-2-hydroxypropyl]-4,5-dihydro-1H-1,2,4-triazol-1-yl}methyl)-1H-1,2,4-triazol-1-yl]-N-(2-fluoro-5-methylphenyl)benzamide] | 175 | 1.65 | 106.1 |
| O=C(NN1CCOCC1)c1ccccc1-n1cnc(Cn2nc(-c3ccc(Cl)cc3)n(C[C@H](O)C(F)(F)F)c2=O)n1 [Example 308, 2-[3-({3-(4-Chlorophenyl)-5-oxo-4-[(2S)-3,3,3-trifluoro-2-hydroxypropyl]-4,5-dihydro-1H-1,2,4-triazol-1-yl}methyl)-1H-1,2,4-triazol-1-yl]-N-(morpholin-4-yl)benzamide] | 3300 | 17.5 | 188.6 |
| Cc1ccc(NC(=O)c2ccccc2-n2cnc(Cn3nc(-c4ccc(Cl)cc4)n(C[C@H](O)C(F)(F)F)c3=O)n2)c(F)c1 [Example 309, 2-[3-({3-(4-Chlorophenyl)-5-oxo-4-[(2S)-3,3,3-trifluoro-2-hydroxypropyl]-4,5-dihydro-1H-1,2,4-triazol-1-yl}methyl)-1H-1,2,4-triazol-1-yl]-N-(2-fluoro-4-methylphenyl)benzamide] | 116 | 1.9 | 61.3 |
| O=C(Nc1ccc(F)cc1)c1ccccc1-n1cnc(Cn2nc(-c3ccc(Cl)cc3)n(C[C@H](O)C(F)(F)F)c2=O)n1 [Example 310, 2-[3-({3-(4-Chlorophenyl)-5-oxo-4-[(2S)-3,3,3-trifluoro-2-hydroxypropyl]-4,5-dihydro-1H-1,2,4-triazol-1-yl}methyl)-1H-1,2,4-triazol-1-yl]-N-(4-fluorophenyl)benzamide] | 215 | 2.6 | 82.7 |
| O=C(c1ccccc1-n1cnc(Cn2nc(-c3ccc(Cl)cc3)n(C[C@H](O)C(F)(F)F)c2=O)n1)N1CCSCC1 [Example 311, 5-(4-Chlorophenyl)-2-({1-[2-(thiomorpholin-4-ylcarbonyl)phenyl]-1H-1,2,4-triazol-3-yl}methyl)-4-[(2S)-3,3,3-trifluoro-2-hydroxypropyl]-2,4-dihydro-3H-1,2,4-triazol-3-one] | 1250 | 1.85 | 675.7 |
| Nc1cccc(NC(=O)c2ccccc2-n2cnc(Cn3nc(-c4ccc(Cl)cc4)n(C[C@H](O)C(F)(F)F)c3=O)n2)n1 [Example 312, N-(6-Aminopyridin-2-yl)-2-[3-({3-(4-chlorophenyl)-5-oxo-4-[(2S)-3,3,3-trifluoro-2-hydroxypropyl]-4,5-dihydro-1H-1,2,4-triazol-1-yl}methyl)-1H-1,2,4-triazol-1-yl]benzamide] | 135 | 6.85 | 19.7 |
| Cc1ccncc1NC(=O)c1ccccc1-n1cnc(Cn2nc(-c3ccc(Cl)cc3)n(C[C@H](O)C(F)(F)F)c2=O)n1 [Example 313, 2-[3-({3-(4-Chlorophenyl)-5-oxo-4-[(2S)-3,3,3-trifluoro-2-hydroxypropyl]-4,5-dihydro-1H-1,2,4-triazol-1-yl}methyl)-1H-1,2,4-triazol-1-yl]-N-(4-methylpyridin-3-yl)benzamide] | 915 | 4.15 | 220.5 |
| CCN(CC)C(=O)c1ccccc1-n1cnc(Cn2nc(-c3ccc(Cl)cc3)n(C[C@H](O)C(F)(F)F)c2=O)n1 [Example 314, 2-[3-({3-(4-Chlorophenyl)-5-oxo-4-[(2S)-3,3,3-trifluoro-2-hydroxypropyl]-4,5-dihydro-1H-1,2,4-triazol-1-yl}methyl)-1H-1,2,4-triazol-1-yl]-N,N-diethylbenzamide] | 510 | 2.15 | 237.2 |
| O=C(NCc1ccco1)c1ccccc1-n1cnc(Cn2nc(-c3ccc(Cl)cc3)n(C[C@H](O)C(F)(F)F)c2=O)n1 [Example 315, 2-[3-({3-(4-Chlorophenyl)-5-oxo-4-[(2S)-3,3,3-trifluoro-2-hydroxypropyl]-4,5-dihydro-1H-1,2,4-triazol-1-yl}methyl)-1H-1,2,4-triazol-1-yl]-N-(furan-2-ylmethyl)benzamide] | 155 | 4.15 | 37.3 |
| O=C(NC1CCC1)c1ccccc1-n1cnc(Cn2nc(-c3ccc(Cl)cc3)n(C[C@H](O)C(F)(F)F)c2=O)n1 [Example 316, 2-[3-({3-(4-Chlorophenyl)-5-oxo-4-[(2S)-3,3,3-trifluoro-2-hydroxypropyl]-4,5-dihydro-1H-1,2,4-triazol-1-yl}methyl)-1H-1,2,4-triazol-1-yl]-N-cyclobutylbenzamide] | 255 | 1.75 | 145.7 |
| O=C(Nc1c(F)cc(F)cc1F)c1ccccc1-n1cnc(Cn2nc(-c3ccc(Cl)cc3)n(C[C@H](O)C(F)(F)F)c2=O)n1 [Example 317, 2-[3-({3-(4-Chlorophenyl)-5-oxo-4-[(2S)-3,3,3-trifluoro-2-hydroxypropyl]-4,5-dihydro-1H-1,2,4-triazol-1-yl}methyl)-1H-1,2,4-triazol-1-yl]-N-(2,4,6-trifluorophenyl)benzamide] | 285 | 2.3 | 123.9 |
| O=C(NCC1CCCCC1)c1ccccc1-n1cnc(Cn2nc(-c3ccc(Cl)cc3)n(C[C@H](O)C(F)(F)F)c2=O)n1 [Example 318, 2-[3-({3-(4-Chlorophenyl)-5-oxo-4-[(2S)-3,3,3-trifluoro-2-hydroxypropyl]-4,5-dihydro-1H-1,2,4-triazol-1-yl}methyl)-1H-1,2,4-triazol-1-yl]-N-(cyclohexylmethyl)benzamide] | 920 | 14.5 | 63.4 |
